Reference: PubChem BioAssay AID190 (DTP/NCI, 2004)
Several values for one entry are separate records, joined by “and”; a condition that tells them apart may be missing. Equal entries are not always repeated. Toxic doses and inconclusive results are not listed. The calls were made as follows: active = survival T/C of 150% or more; inactive = T/C below 125% in these data.

Tested on: AKR/Lw mice, AKR lymphoma ip, median survival T/C
Assay: NCI In Vivo Anticancer Drug Screen. Data for tumor model Lymphoma AKR (Transplanted) (intraperitoneal) in AKR/Lw mice
Settings: endpoint: median survival time, higher = longer survival
Description: The antitumor activity of compounds was measured in mice bearing transplantable tumors. Survival or tumor size were measured and the results are expressed as the measurement made in the treated group (T) divided by the measurement made in the vehicle treated control group (C). The tumor model used in this assay is Lymphoma AKR (Transplanted) (intraperitoneal) in AKR/Lw mice

[1] = dose: 5.0 mg/kg/injection, schedule: Q01DX009 (ip), vehicle: Klucel (hydroxypropylcellulose) (HPC)
[2] = dose: 12.5 mg/kg/injection, schedule: Q01DX001 (ip), vehicle: saline
[3] = dose: 12.5 mg/kg/injection, schedule: Q01DX009 (ip), vehicle: Klucel (hydroxypropylcellulose) (HPC)
[4] = dose: 25.0 mg/kg/injection, schedule: Q01DX001 (ip), vehicle: saline
[5] = dose: 100.0 mg/kg/injection, schedule: Q01DX001 (ip), vehicle: saline
[6] = dose: 100.0 mg/kg/injection, schedule: Q04DX003 (ip), vehicle: Klucel (hydroxypropylcellulose) (HPC)
[7] = dose: 200.0 mg/kg/injection, schedule: Q01DX001 (ip), vehicle: saline
[8] = dose: 200.0 mg/kg/injection, schedule: Q04DX003 (ip), vehicle: Klucel (hydroxypropylcellulose) (HPC)
[9] = dose: 400.0 mg/kg/injection, schedule: Q04DX003 (ip), vehicle: Klucel (hydroxypropylcellulose) (HPC)
[10] = dose: 50.0 mg/kg/injection, schedule: Q01DX001 (ip), vehicle: saline
[11] = dose: 100.0 mg/kg/injection, schedule: Q01DX001 (ip), vehicle: Klucel (hydroxypropylcellulose) (HPC)
[12] = dose: 200.0 mg/kg/injection, schedule: Q01DX001 (ip), vehicle: Klucel (hydroxypropylcellulose) (HPC)
[13] = dose: 400.0 mg/kg/injection, schedule: Q01DX001 (ip), vehicle: Klucel (hydroxypropylcellulose) (HPC)
[14] = dose: 400.0 mg/kg/injection, schedule: Q01DX001 (ip), vehicle: saline

Measured: T/C

CS(=O)(=O)OCCCCOS(C)(=O)=O
inactive: dose: 0.5 mg/kg/injection, schedule: Q01DX009 (ip), vehicle: Klucel (hydroxypropylcellulose) (HPC) 100 % of control | dose: 0.75 mg/kg/injection, schedule: Q01DX009 (ip), vehicle: saline 112 % of control | dose: 1.0 mg/kg/injection, schedule: Q01DX009 (ip), vehicle: Klucel (hydroxypropylcellulose) (HPC) 120 % of control | dose: 1.5 mg/kg/injection, schedule: Q01DX009 (ip), vehicle: saline 116 % of control | dose: 2.0 mg/kg/injection, schedule: Q01DX009 (ip), vehicle: Klucel (hydroxypropylcellulose) (HPC) 120 % of control | dose: 2.5 mg/kg/injection, schedule: Q01DX009 (ip), vehicle: saline 112 % of control | dose: 3.0 mg/kg/injection, schedule: Q01DX009 (ip), vehicle: saline 108 % of control | dose: 3.75 mg/kg/injection, schedule: Q01DX009 (ip), vehicle: saline 100 % of control and 116 % of control | dose: 4.0 mg/kg/injection, schedule: Q01DX009 (ip), vehicle: Klucel (hydroxypropylcellulose) (HPC) 107 % of control | [1] 102 % of control | dose: 5.0 mg/kg/injection, schedule: Q01DX009 (ip), vehicle: saline 96 % of control | dose: 7.5 mg/kg/injection, schedule: Q01DX009 (ip), vehicle: saline 86 % of control and 89 % of control | dose: 8.0 mg/kg/injection, schedule: Q01DX009 (ip), vehicle: Klucel (hydroxypropylcellulose) (HPC) 100 % of control | dose: 8.0 mg/kg/injection, schedule: Q01DX009 (ip), vehicle: saline 115 % of control | dose: 10.0 mg/kg/injection, schedule: Q01DX009 (ip), vehicle: saline 104 % of control | dose: 10.0 mg/kg/injection, schedule: Q04DX003 (ip), vehicle: Klucel (hydroxypropylcellulose) (HPC) 104 % of control | [2] 102 % of control and 110 % of control (2×) | [3] 89 % of control | dose: 12.5 mg/kg/injection, schedule: Q01DX009 (ip), vehicle: saline 87 % of control | dose: 15.0 mg/kg/injection, schedule: Q01DX009 (ip), vehicle: saline 105 % of control | dose: 16.0 mg/kg/injection, schedule: Q01DX009 (ip), vehicle: saline 103 % of control | dose: 20.0 mg/kg/injection, schedule: Q01DX009 (ip), vehicle: saline 113 % of control | dose: 20.0 mg/kg/injection, schedule: Q04DX003 (ip), vehicle: Klucel (hydroxypropylcellulose) (HPC) 91 % of control | [4] 97 % of control and 100 % of control and 114 % of control | dose: 25.0 mg/kg/injection, schedule: Q01DX009 (ip), vehicle: Klucel (hydroxypropylcellulose) (HPC) 89 % of control | dose: 25.0 mg/kg/injection, schedule: Q01DX009 (ip), vehicle: saline 89 % of control | dose: 25.0 mg/kg/injection, schedule: Q04DX003 (ip), vehicle: other 108 % of control | dose: 25.0 mg/kg/injection, schedule: Q04DX003 (ip), vehicle: saline 101 % of control | dose: 30.0 mg/kg/injection, schedule: Q01DX009 (ip), vehicle: saline 104 % of control | dose: 37.5 mg/kg/injection, schedule: Q04DX003 (ip), vehicle: saline 90 % of control | dose: 40.0 mg/kg/injection, schedule: Q04DX003 (ip), vehicle: Klucel (hydroxypropylcellulose) (HPC) 100 % of control | dose: 50.0 mg/kg/injection, schedule: Q01DX009 (ip), vehicle: Klucel (hydroxypropylcellulose) (HPC) 89 % of control | dose: 50.0 mg/kg/injection, schedule: Q04DX003 (ip), vehicle: other 104 % of control | dose: 50.0 mg/kg/injection, schedule: Q04DX003 (ip), vehicle: saline 109 % of control | [5] 97 % of control and 105 % of control | [6] 100 % of control | dose: 100.0 mg/kg/injection, schedule: Q04DX003 (ip), vehicle: other 91 % of control | dose: 100.0 mg/kg/injection, schedule: Q04DX003 (ip), vehicle: saline 92 % of control | [7] 97 % of control | [8] 105 % of control | [9] 100 % of control | dose: 600.0 mg/kg/injection, schedule: Q01DX001 (ip), vehicle: Klucel (hydroxypropylcellulose) (HPC) 106 % of control

CCOC(=O)C(O)C(C#N)c1ccccc1 (stereo not given)
inactive: dose: 100.0 mg/kg/injection, schedule: Q01DX001 (ip), vehicle: other 103 % of control | dose: 200.0 mg/kg/injection, schedule: Q01DX001 (ip), vehicle: other 103 % of control | dose: 400.0 mg/kg/injection, schedule: Q01DX001 (ip), vehicle: other 100 % of control

CCCN(CCC)CC(C)=O
inactive: dose: 11.0 mg/kg/injection, schedule: Q01DX001 (ip), vehicle: saline 106 % of control | dose: 17.0 mg/kg/injection, schedule: Q01DX001 (ip), vehicle: saline 103 % of control | [4] 100 % of control | dose: 37.5 mg/kg/injection, schedule: Q01DX001 (ip), vehicle: saline 100 % of control | [10] 115 % of control | [5] 105 % of control and 110 % of control

O=[N+]([O-])c1ccc(OCc2ccc(S(=O)(=O)F)c(Cl)c2)c(Cl)c1
inactive: dose: 3.0 mg/kg/injection, schedule: Q01DX009 (ip), vehicle: Klucel (hydroxypropylcellulose) (HPC) 104 % of control | dose: 6.0 mg/kg/injection, schedule: Q01DX009 (ip), vehicle: Klucel (hydroxypropylcellulose) (HPC) 88 % of control | dose: 12.0 mg/kg/injection, schedule: Q01DX009 (ip), vehicle: Klucel (hydroxypropylcellulose) (HPC) 95 % of control | [3] 100 % of control | [11] 97 % of control | [6] 90 % of control | [12] 97 % of control | [8] 88 % of control | [13] 90 % of control | [9] 90 % of control

CN(C)S(=O)(=O)Nc1cc(Cl)c(NS(=O)(=O)N(C)C)cc1Cl
inactive: [11] 93 % of control | [12] 106 % of control | [13] 100 % of control

CC12CCCC(=O)C1CC/C(=C\c1ccco1)C2=O (stereo not given)
inactive: [5] 109 % of control | [7] 100 % of control | [14] 100 % of control

C1CC2CCC[N+]3=C2C(C1)CCC3 (stereo not given)
inactive: [2] 100 % of control | [4] 100 % of control | [10] 108 % of control

COc1ccc(CCNC(=S)NCCc2ccc(OC)c(OC)c2)cc1OC
inactive: dose: 25.0 mg/kg/injection, schedule: Q04DX003 (ip), vehicle: Klucel (hydroxypropylcellulose) (HPC) 94 % of control | dose: 50.0 mg/kg/injection, schedule: Q04DX003 (ip), vehicle: Klucel (hydroxypropylcellulose) (HPC) 105 % of control | [11] 88 % of control | [6] 100 % of control | [13] 86 % of control

Cc1c(N)nc([C@H](CC(N)=O)NC[C@H](N)C(N)=O)nc1C(=O)N[C@H](C(=O)N[C@H](C)[C@@H](O)[C@H](C)C(=O)N[C@H](C(=O)NCCc1nc(-c2nc(C(=O)NCCC[S+](C)C)cs2)cs1)[C@@H](C)O)C(OC1OC(CO)C(O)C(O)C1OC1OC(CO)C(O)C(OC(N)=O)C1O)c1cnc[nH]1 (stereo not given in full)
inactive: dose: 0.05 mg/kg/injection, schedule: Q01DX010 (ip), vehicle: saline 120 % of control | dose: 0.1 mg/kg/injection, schedule: Q01DX010 (ip), vehicle: saline 103 % of control | dose: 0.25 mg/kg/injection, schedule: Q01DX010 (ip), vehicle: saline 116 % of control | dose: 0.4 mg/kg/injection, schedule: Q01DX010 (ip), vehicle: saline 113 % of control | dose: 0.5 mg/kg/injection, schedule: Q01DX010 (ip), vehicle: saline 106 % of control | dose: 0.75 mg/kg/injection, schedule: Q01DX010 (ip), vehicle: saline 106 % of control | dose: 1.0 mg/kg/injection, schedule: Q01DX010 (ip), vehicle: saline 100 % of control | dose: 1.5 mg/kg/injection, schedule: Q01DX010 (ip), vehicle: saline 93 % of control | dose: 1.9 mg/kg/injection, schedule: Q01DX010 (ip), vehicle: saline 95 % of control | dose: 2.0 mg/kg/injection, schedule: Q01DX010 (ip), vehicle: saline 100 % of control

COc1cc2c(cc1OC)C1CCN3CCCC3N1CC2 (stereo not given)
inactive: [11] 100 % of control

C/C(=C\Cl)CN1C(=O)c2ccccc2C1=O
inactive: [5] 93 % of control | [7] 102 % of control | [14] 93 % of control

COc1cc([C@@H]2c3cc4c(cc3[C@@H](OC3OC5COC(C)OC5C(O)C3O)[C@H]3COC(=O)[C@H]23)OCO4)cc(OC)c1O (stereo not given in full)
active: [1] 321 % of control
